Experimental data from US20240000899A1, “THERAPEUTIC USEFUL AGAINST ANTIMICROBIAL RESISTANT AGENTS” (priority 2022, published 2024).

Legend:
[1] = 4.0% w/v concentration; cited from earlier work
[2] = aerosolized, pH range of 1.5 to 2.0
From the text: Additionally, the low pH acid formulation needs to provide no or minimum deleterious effect to host tissues.

human coronavirus = conditions: therapeutic concentration (~1.7 pH), in vitro suspension tests
[3] = tested on: HepG2 (human liver) cell culture; assay: Modified cytotoxicity protocol: residual anions of neutralized acid formulations; format: cell-based; conditions: for Cytotoxicity of residual anions, conclusion in words: pH 1.5
Description: Purpose: A modified cytotoxicity protocol was developed focusing on the cytotoxicity of the residual anions of the acid formulations. Twenty different acids formulations were tested, each in the range of 1.95 to 1.5 pH. Each formulation was diluted with distilled water to hydronium concentrations of 11.22 mM (pH 1.95), […] (pH 1.85), 19.95 mM (pH 1.70), 25.12 mM (pH 1.60), and 31.62 mM (pH 1.50). It was then titrated with NaOH to 7.4 pH and applied to HepG2 (human liver) cell culture in triplicate replicates.

[4] = tested on: Staphylococcus aureus ATCC 6538; assay: Modified ASTM E2315 test of low pH therapeutic with AMPs, acid neutralized after one minute; format: cell-based
From the text: Since the reaction speed of the two different MOAs are different, a modified test protocol was developed, which is summarized below. • a. […] Heretofore, it has been believed that AMPs are unstable in low pH environments. Mixture of dry powder immediately prior to use is believed to address concerns regarding minimization of in vitro stability. • b. The prepared AMP solution was then mixed with the bacteria containing media. After one minute the acid solution was neutralized. This simulates the short antimicrobial period for the elevated proton concentration in vivo. The bacteria population was measured to determine efficacy after one minute. • c. The AMPs retained in the solution are not expected to stop their antimicrobial activity after acid neutralization, so a second bacteria population measurement was made after 24 hours. [table]

OB(O)O [Boric acid]
pH [1]: 4.8-5.0

O=S(=O)(O)O [sulfuric acid]
Harm to host respiratory tissues in vivo [2]: not harmful | Cytotoxicity (mouse fibroblast cells): no cytotoxicity | Time to inactivating and/or reducing concentration of human coronavirus (human coronavirus): ≤ 1 min

Hydroxyacetic + HCl [Example 15]
% Viability @ pH 1.9 [3]: 117%

Hydroxyacetic +. Sulfuric [Example 8]
% Viability @ pH 1.9 [3]: 72.7%

Isoacorbic + sulfuric [Example 17]
% Viability @ pH 1.9 [3]: 89.3%

Isoascorbic + HCl [Example 18]
Cytotoxicity of residual anions, conclusion in words [3]: least toxic | % Viability @ pH 1.9 [3]: 104%

LL-37 [Example 38, reference compound]
1-min Efficacy (log) ([4]; bacteria population after one minute, then acid neutralized, no soiling, single-replicant): 4.15 log | Efficacy on S. aureus, conclusion in words ([4]; comparison of Table 3 examples): highly effective | 24-hour Efficacy (log) ([4]; second bacteria population measurement after 24 hours, acid neutralized after one minute): >6.45 log

Sulfuric [Example 3]
Cytotoxicity of residual anions, conclusion in words [3]: least toxic | % Viability @ pH 1.9 [3]: 140%
